Target: T1, human GPR119 (Homo sapiens, UniProt Q8TDV5)
T1 construct: expressed in transfected cells
T1 sequence (Q8TDV5 1-335): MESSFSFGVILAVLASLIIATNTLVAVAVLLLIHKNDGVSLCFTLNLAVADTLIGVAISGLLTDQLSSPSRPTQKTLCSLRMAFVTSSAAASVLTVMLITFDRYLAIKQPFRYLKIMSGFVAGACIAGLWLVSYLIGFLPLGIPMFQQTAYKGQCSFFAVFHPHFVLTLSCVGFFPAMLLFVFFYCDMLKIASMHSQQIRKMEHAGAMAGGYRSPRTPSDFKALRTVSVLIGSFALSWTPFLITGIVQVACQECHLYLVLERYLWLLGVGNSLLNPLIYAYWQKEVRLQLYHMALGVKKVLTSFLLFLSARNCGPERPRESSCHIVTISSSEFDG
Test: Functional cellular assay measuring GPR119-mediated cAMP release (HTRF) in HEK-293 cells stably expressing recombinant GPR119
Type: cell-based
Settings: cAMP response, cell line expressing human GPR119 (HEK-293), 30 minutes at room temperature
Method: Functional Cellular Assays Measuring GPR119-Mediated cAMP Release
Compounds of the invention, which are agonists of GPR119, were characterized by functional assays measuring the cAMP response of HEK-293 cell lines stably expressing recombinant GPR119 from man, mouse or rat, or by using a hamster cell line HIT-T15 expressing GPR119 endogenously. The cAMP content was determined using a kit based on homogenous time-resolved fluorescence (HTRF) from Cisbio Corp. (cat. no. 62AM4PEC). For preparation, cells were split into T175 culture flasks and grown to near confluency in medium (DMEM/10% FCS for HEK-293 cells, and F-12K medium/10% horse serum/2.5% FCS for HIT-T15 cells, respectively). Medium was then removed and cells washed with PBS lacking calcium and magnesium ions, followed by proteinase treatment with accutase (Sigma-Aldrich, cat. no. A6964). Detached cells were washed and resuspended in assay buffer (1×HBSS; 20 mM HEPES, 0.1% BSA, 2 mM IBMX) and cellular density determined. They were then diluted to 400000 cells/mL and 25 μL-aliquots dispensed to the wells of 96-well plates. For measurement, 25 μL of test compound in assay buffer was added and incubated for 30 minutes at room temperature. After addition of HTRF reagents diluted in lysis buffer, the plates were incubated for 1 hour, followed by measuring the fluorescence ratio at 665 vs. 620 nm. Potency of the agonists was quantified by determining the concentrations that caused 50% of the maximal response/activation (EC50). See Table 3 for exemplary data obtained using the cell line expressing human GPR119.

Structure (SMILES)	EC50 [nM]
O=C(Cn1nc2c(F)cc(N3CC[C@@H](Oc4ccc(OCC5CC5)nc4)C3=O)cn2c1=O)NC1CC1 [Example 2-02, N-cyclopropyl-2-[6-[(3R)-3-[[6-(cyclopropylmethoxy)-3-pyridyl]oxy]-2-oxo-pyrrolidin-1-yl]-8-fluoro-3-oxo-[1,2,4]triazolo[4,3-a]pyridin-2-yl]acetamide]	123
O=C(Cn1nc2ccc(N3CC[C@@H](Oc4ccc(OCC5CC5)nc4)C3=O)cc2n1)NCCO [Example 2-04, 2-[5-[(3R)-3-[[6-(cyclopropylmethoxy)-3-pyridyl]oxy]-2-oxo-pyrrolidin-1-yl]benzotriazol-2-yl]-N-(2-hydroxyethyl)acetamide]	343
CS(=O)(=O)Cn1nc2ccc(N3CC[C@@H](Oc4ccc(OCC(F)(F)F)nc4)C3=O)cn2c1=O [Example 1-33, 2-(methylsulfonylmethyl)-6-[(3R)-2-oxo-3-[[6-(2,2,2-trifluoroethoxy)-3-pyridyl]oxy]pyrrolidin-1-yl]-[1,2,4]triazolo[4,3-a]pyridin-3-one]	113
COC(=O)Cn1nc2c(F)cc(N3CC[C@@H](Oc4ccc(OCC5CC5)nc4)C3=O)cn2c1=O [Example 1-28, methyl 2-[6-[(3R)-3-[[6-(cyclopropylmethoxy)-3-pyridyl]oxy]-2-oxo-pyrrolidin-1-yl]-8-fluoro-3-oxo-[1,2,4]triazolo[4,3-a]pyridin-2-yl]acetate]	70
CN(C)C(=O)Cn1nc2c(F)cc(N3CC[C@@H](Oc4ccc(OCC5CC5)nc4)C3=O)cn2c1=O [Example 2-01, 2-[6-[(3R)-3-[[6-(cyclopropylmethoxy)-3-pyridyl]oxy]-2-oxo-pyrrolidin-1-yl]-8-fluoro-3-oxo-[1,2,4]triazolo[4,3-a]pyridin-2-yl]-N,N-dimethyl-acetamide]	126
CN(C)C(=O)Cn1cc2cc(N3CC[C@@H](Oc4ccc(OCC(F)(F)F)nc4)C3=O)ccc2n1 [Example 1-34, N,N-dimethyl-2-[5-[(3R)-2-oxo-3-[[6-(2,2,2-trifluoroethoxy)-3-pyridyl]oxy]pyrrolidin-1-yl]indazol-2-yl]acetamide]	103
COC(=O)Cn1nc2ccc(N3CC[C@@H](Oc4ccc(OCC5CC5)nc4)C3=O)cc2n1 [Example 1-18, methyl 2-[5-[(3R)-3-[[6-(cyclopropylmethoxy)-3-pyridyl]oxy]-2-oxo-pyrrolidin-1-yl]benzotriazol-2-yl]acetate]	34
Cn1nc2c(F)cc(N3CC[C@@H](Oc4ccc(OCC5CC5)nc4)C3=O)cn2c1=O [Example 1-27, 6-[(3R)-3-[[6-(cyclopropylmethoxy)-3-pyridyl]oxy]-2-oxo-pyrrolidin-1-yl]-8-fluoro-2-methyl-[1,2,4]triazolo[4,3-a]pyridin-3-one]	1870
CN(C)C(=O)Cn1nc2ccc(N3CC[C@@H](Oc4ccc(Oc5ccc(F)cc5)nc4)C3=O)cn2c1=O [Example 1-11, 2-[6-[(3R)-3-[[6-(4-fluorophenoxy)-3-pyridyl]oxy]-2-oxo-pyrrolidin-1-yl]-3-oxo-[1,2,4]triazolo[4,3-a]pyridin-2-yl]-N,N-dimethyl-acetamide]	206
CS(=O)(=O)Cn1nc2ccc(N3CC[C@@H](Oc4ccc(C(=O)C5CC5)cc4)C3=O)cn2c1=O [Example 1-32, 6-[(3R)-3-[4-(cyclopropanecarbonyl)phenoxy]-2-oxo-pyrrolidin-1-yl]-2-(methylsulfonylmethyl)-[1,2,4]triazolo[4,3-a]pyridin-3-one]	196
CN(C)C(=O)Cn1nc2c(F)cc(N3CC[C@@H](Oc4ccc(C(=O)CC5CC5)cc4)C3=O)cn2c1=O [Example 1-13, 2-[6-[(3R)-3-[4-(2-cyclopropylacetyl)phenoxy]-2-oxo-pyrrolidin-1-yl]-8-fluoro-3-oxo-[1,2,4]triazolo[4,3-a]pyridin-2-yl]-N,N-dimethyl-acetamide]	179
CN(C)C(=O)Cn1nc2cc(N3CC[C@@H](Oc4ccc(OCC5CC5)nc4)C3=O)cc(F)c2n1 [Example 1-22, 2-[6-[(3R)-3-[[6-(cyclopropylmethoxy)-3-pyridyl]oxy]-2-oxo-pyrrolidin-1-yl]-4-fluorobenzotriazol-2-yl]-N,N-dimethyl-acetamide]	182

Second part, the compound after the results:

EC50 [nM]	Structure (SMILES)
17300	O=C(O)Cc1nc2ccc(N3CC[C@@H](Oc4ccc(OCC5CC5)nc4)C3=O)cn2n1 [Example 1-06, 2-[6-[(3R)-3-[[6-(cyclopropylmethoxy)-3-pyridyl]oxy]-2-oxo-pyrrolidin-1-yl]-[1,2,4]triazolo[1,5-a]pyridin-2-yl]acetic acid]
2110	O=C(O)Cn1nc2ccc(N3CC[C@@H](Oc4ccc(OCC5CC5)nc4)C3=O)cc2n1 [Example 1-17, 2-[5-[(3R)-3-[[6-(cyclopropylmethoxy)-3-pyridyl]oxy]-2-oxo-pyrrolidin-1-yl]benzotriazol-2-yl]acetic acid]
11300	O=C1[C@H](Oc2ccc(OCC3CC3)nc2)CCN1c1ccc2nc(C3CC3)nn2c1 [Example 1-01, (3R)-3-[[6-(Cyclopropylmethoxy)-3-pyridyl]oxy]-1-(2-cyclopropyl-[1,2,4]triazolo[1,5-a]pyridin-6-yl)pyrrolidin-2-one]
191	CN(C)C(=O)Cn1nc2ccc(N3CC[C@@H](Oc4ccc(OCC5CC5)nc4)C3=O)cn2c1=O [Example 1-09, 2-[6-[(3R)-3-[[6-(cyclopropylmethoxy)-3-pyridyl]oxy]-2-oxo-pyrrolidin-1-yl]-3-oxo-[1,2,4]triazolo[4,3-a]pyridin-2-yl]-N,N-dimethyl-acetamide]
701	O=C1[C@H](Oc2ccc(OCC3CC3)nc2)CCN1c1ccc2n[nH]c(=O)n2c1 [Example 1-14, 6-[(3R)-3-[[6-(cyclopropylmethoxy)-3-pyridyl]oxy]-2-oxo-pyrrolidin-1-yl]-2H-[1,2,4]triazolo[4,3-a]pyridin-3-one]
7620	O=C1[C@H](Oc2ccc(OCC3CC3)nc2)CCN1c1ccc2nccn2c1 [Example 1-03, (3R)-3-[[6-(cyclopropylmethoxy)-3-pyridyl]oxy]-1-imidazo[1,2-a]pyridin-6-yl-pyrrolidin-2-one]
6170	O=C(O)Cn1nc2ccc(N3CC[C@@H](Oc4ccc(OCC5CC5)nc4)C3=O)cn2c1=O [Example 1-24, 2-[6-[(3R)-3-[[6-(cyclopropylmethoxy)-3-pyridyl]oxy]-2-oxo-pyrrolidin-1-yl]-3-oxo-[1,2,4]triazolo[4,3-a]pyridin-2-yl]acetic acid]
851	O=C1[C@H](Oc2ccc(OCC3CC3)nc2)CCN1c1ccc2ncnn2c1 [Example 1-02, (3R)-3-[[6-(cyclopropylmethoxy)-3-pyridyl]oxy]-1-([1,2,4]triazolo[1,5-a]pyridin-6-yl)pyrrolidin-2-one]
1580	COC(=O)Cc1nc2ccc(N3CC[C@@H](Oc4ccc(OCC5CC5)nc4)C3=O)cn2n1 [Example 1-07, methyl 2-[6-[(3R)-3-[[6-(cyclopropylmethoxy)-3-pyridyl]oxy]-2-oxo-pyrrolidin-1-yl]-[1,2,4]triazolo[1,5-a]pyridin-2-yl]acetate]
113	COC(=O)Cn1nc2ccc(N3CC[C@@H](Oc4ccc(OCC5CC5)nc4)C3=O)cn2c1=O [Example 1-26, methyl 2-[6-[(3R)-3-[[6-(cyclopropylmethoxy)-3-pyridyl]oxy]-2-oxo-pyrrolidin-1-yl]-3-oxo-[1,2,4]triazolo[4,3-a]pyridin-2-yl]acetate]
924	COC(=O)Cn1cc2ccc(N3CC[C@@H](Oc4ccc(OCC5CC5)nc4)C3=O)cc2n1 [Example 1-15, methyl 2-[6-[(3R)-3-[[6-(cyclopropylmethoxy)-3-pyridyl]oxy]-2-oxo-pyrrolidin-1-yl]indazol-2-yl]acetate]
7990	O=C1[C@H](Oc2ccc(OCC3CC3)nc2)CCN1c1ccc2nncn2c1 [Example 1-05, (3R)-3-[[6-(cyclopropylmethoxy)-3-pyridyl]oxy]-1-([1,2,4]triazolo[4,3-a]pyridin-6-yl)pyrrolidin-2-one]
196	NC(=O)Cn1nc2ccc(N3CC[C@@H](Oc4ccc(OCC5CC5)nc4)C3=O)cc2n1 [Example 2-05, 2-[5-[(3R)-3-[[6-(cyclopropylmethoxy)-3-pyridyl]oxy]-2-oxo-pyrrolidin-1-yl]benzotriazol-2-yl]acetamide]
2050	Cn1nc2ccc(N3CC[C@@H](Oc4ccc(OCC5CC5)nc4)C3=O)cc2n1 [Example 1-21, (3R)-3-[[6-(cyclopropylmethoxy)-3-pyridyl]oxy]-1-(2-methylbenzotriazol-5-yl)pyrrolidin-2-one]
> 100000	O=C(O)Cc1cn2cc(N3CC[C@@H](Oc4ccc(OCC5CC5)nc4)C3=O)ccc2n1 [Example 1-19, 2-[6-[(3R)-3-[[6-(cyclopropylmethoxy)-3-pyridyl]oxy]-2-oxo-pyrrolidin-1-yl]imidazo[1,2-a]pyridin-2-yl]acetic acid]
